Source: patent US5183819A, “Use of fused bicyclic imides in the treatment of various CNS disorders” (American Home Products Corporation, priority 1992, dated 1993)

Key:
[1] = system: monkeys with a preference for alcohol; settings: cited from earlier work
[2] = system: rats; settings: intravenous or subcutaneous administration; cited from earlier work
[3] = system: isolation-induced aggressive mice; settings: White et al. 1991; cited from earlier work
[4] = system: male Wistar rats; test: Ethanol consumption, free choice between water and 5% aqueous ethanol; settings: zalospirone 40 mg/kg, fluoxetine 10 mg/kg intraperitoneal; for ethanol consumed compared to control (Ringer's solution): treatment periods, g/kg or ml/rat basis
Experimental: A 12 hour light/dark cycle was programmed with darkness commencing at 1900 hr. […] The drinking tube positions were switched daily. The ethanol concentration was increased by 1% every 3 days until a concentration of 5% was reached. All rats were weighed daily and water or aqueous ethanol intake recorded.
After 3 days at the 5% ethanol concentration the rats that had consumed the 5% ethanol consistently began baseline and the inconsistent or poor drinkers were dropped from the study. A total of 30 rats began baseline studies. Baseline consisted of 8 days of free choice between water and 5% aqueous ethanol. During this time each rat received intraperitoneal injections of Ringer's solution (NaCl, 0.86 g; KCl, 0.03 g; and CaCl2.2H2 O, 0.033 g diluted to 100 ml with distilled water). Weight and water or 5% aqueous ethanol consumption were determined daily at 0800 hr and 1800 hr.

[5] = system: mice; settings: White et al. 1991; cited from earlier work

Row | SMILES | paradoxical sleep [2] | slow wave sleep [2] | wakefulness [2] | aggression in isolation-induced aggressive mice [3] | ethanol consumed compared to control (Ringer's solution) [4] | total fluid intake vs control animals [4] | water consumption, treated vs. control rats [4] | other results
1 | O=C1CC2(CCCC2)CC(=O)N1CCCCN1CCN(c2ncccn2)CC1 [buspirone] | reduced | reduced | increased wakefulness | reduce aggression |  |  |  | preference for alcohol [1]: lower the preference for alcohol
2 | CNCCC(Oc1ccc(C(F)(F)F)cc1)c1ccccc1 (centres unmarked) [fluoxetine] |  |  |  |  | significantly less ethanol | less than with the control animals | no significant differences | food consumption compared to control rats [4]: decreased food consumption; weight gain compared to control rats [4]: significantly less weight gain
3 | O=C1C2C3C=CC(C4C=CC43)C2C(=O)N1CCCCN1CCN(c2ncccn2)CC1 (centres unmarked) [zalospirone, 3a,4,4a,6a,7a-hexahydro-2-[4-[4-(2-pyrimidinyl)-1-piperazinyl]butyl]-4,7-ethano-1H-cyclobut[f]isoindole-1,3(2H)-dione] |  |  |  | reduce aggression | significantly less ethanol | less than with the control animals | no significant differences | debilitating (sedating) effects at the antiaggressive dose [5]: without the debilitating (sedating) effects
4 | O=C1c2ccccc2S(=O)(=O)N1CCCCN1CCN(c2ncccn2)CC1 [ipsapirone] |  |  |  | reduce aggression |  |  |  | 
5 | CC1(C)CC(=O)N(CCCCN2CCN(c3ncccn3)CC2)C(=O)C1 [gepirone] |  |  |  | reduce aggression |  |  |  | 
6 | CCCN(CCC)C1CCc2cccc(O)c2C1 (centres unmarked) [8-OH-DPAT, 8-hydroxy-2-(di-n-propylamino)tetralin] | reduced | reduced | increased wakefulness |  |  |  |  | 
